Patent publication US11702409B2, “Pyrazolyl derivatives useful as anti-cancer agents” (NOVARTIS AG, priority 2019, dated 2023)

Target: KRasG12C (M1-K169, biotinylated on the N-terminus) (Homo sapiens (Human), UniProt P01116, G12C)
Test: Covalent competition assay (scintillation proximity assay, competition with radiolabeled covalent probe Compound B)
Format: binding
Conditions: in vitro KRASG12C activity; 10 nM KRasG12C:GDP, 25 nM radio-ligand and 475 nM unlabelled ligand, incubated 2 hours; read-out: Covalent Competition Assay IC50
Method: The cells were lysed by 4 passages through an Avestin Emulsiflex at about 20000 psi and insoluble debris removed by centrifugation and filtered through a 0.45 μm Durapore membrane (Millipore). […] The protein in the flow through was subjected to a final polishing step on a HiLoad 16/60 Superdex 200 prep grade size-exclusion column pre-equilibrated with SEC-buffer (20 mM HEPES pH 7.4, 150 mM NaCl, 5 mM MgCl2, 1 μM GDP).
A scintillation proximity assay (SPA) was used to determine the potency of the compounds. This assay measures the ability of the test compound to compete with the radiolabeled covalent probe for binding to and covalently modify KRASG12C.
A serial dilution of the compounds to be tested is mixed with a fixed concentration of the radiolabeled covalent probe before incubation with KRASG12C:GDP as described below.
The reaction was started by addition of KRasG12C (M1-K169, biotinylated on the N-terminus) to the compounds and incubated for 2 hours with continuous agitation allowing for full modification of KRasG12C with probe or test compounds. […] The assay buffer contained 20 mM Tris-HCl pH 7.5 (Invitrogen), 150 mM NaCl (Sigma Aldrich), 0.1 mM MgCl2 (Sigma Aldrich), and 0.01% Tween-20 (Sigma Aldrich).
Evaluation was carried out using assay data analysis software (such as the standard Novartis in-house Helios software application, Novartis Institutes for BioMedical Research, unpublished) using the methods described in Formenko et al., Robust Regression for high-throughput screening.
Evaluation can also be carried out using commercially available software which is designed to derive IC50 values using 4-parameter fits (e.g. GraphPad Prism, XL fit).

Row | Compound | IC50
1 | C=CC(=O)N1CC2(CC(n3nc(-c4ccc(OCCOC)cc4F)c(-c4c(Cl)c(C)cc5[nH]ncc45)c3C)C2)C1 (single isomer, unassigned) [Example 60b, 1-(6-(4-(5-chloro-6-methyl-1H-indazol-4-yl)-3-(2-fluoro-4-(2-methoxyethoxy)phenyl)-5-methyl-1H-pyrazol-1-yl)-2-azaspiro[3.3]heptan-2-yl)prop-2-en-1-one] | > 5000 nM
2 | C=CC(=O)N1CC2(CC(n3nc(-c4ccc(N5CCS(=O)(=O)CC5)cc4)c(-c4c(Cl)c(C)cc5[nH]ncc45)c3C)C2)C1 (single isomer, unassigned) [Example 50a, 1-(6-(4-(5-chloro-6-methyl-1H-indazol-4-yl)-3-(4-(1,1-dioxidothiomorpholino)phenyl)-5-methyl-1H-pyrazol-1-yl)-2-azaspiro[3.3]heptan-2-yl)prop-2-en-1-one] | 35 nM
3 | C=CC(=O)N1CC2(CC(n3nc(-c4ccc(=O)n(C)c4)c(-c4c(Cl)c(C)cc5[nH]ncc45)c3C)C2)C1 (single isomer, unassigned) [Example 6b] | > 50000 nM
4 | C=CC(=O)N1CC2(CC(n3nc(-c4ccc5c(c4)CCN5CCOC)c(-c4c(Cl)c(C)cc5[nH]ncc45)c3C)C2)C1 (single isomer, unassigned) [Example 44b] | > 5000 nM
5 | C=CC(=O)N1CC2(CC(n3nc(-c4ccccc4)c(-c4c(Cl)c(C)cc5[nH]ncc45)c3C)C2)C1 (single isomer, unassigned) [Example 26b] | 45600 nM
6 | C=CC(=O)N1CC2(CC(n3nc(-c4cccnc4)c(-c4c(Cl)ccc5[nH]ncc45)c3C)C2)C1 (single isomer, unassigned) [Example 19a] | 1900 nM
7 | C=CC(=O)N1CC2(CC(n3nc(-c4ccc5c(c4)CN(C)C5)c(-c4c(Cl)c(C)cc5[nH]ncc45)c3C)C2)C1 (single isomer, unassigned) [Example 75b] | > 50000 nM
8 | C=CC(=O)N1CC2(CC(n3nc(-c4cccnc4C)c(-c4c(Cl)ccc5[nH]ncc45)c3C)C2)C1 (single isomer, unassigned) [Example 89a] | 2300 nM
9 | C=CC(=O)N1CC2(CC(n3nc(-c4ccc5c(c4)CC(=O)N5C)c(-c4c(Cl)c(C)cc5[nH]ncc45)c3C)C2)C1 (single isomer, unassigned) [Example 24b] | > 50000 nM
10 | C=CC(=O)N1CC2(CC(n3nc(-c4ccc5c(c4)C(=O)OC5)c(-c4c(Cl)c(C)cc5[nH]ncc45)c3C)C2)C1 (single isomer, unassigned) [Example 54a] | 360 nM
11 | C=CC(=O)N1CC2(CC(n3nc(-c4ccc(C(=O)NCCOC)nc4)c(-c4c(Cl)c(C)cc5[nH]ncc45)c3C)C2)C1 (single isomer, unassigned) [Example 64a] | 55 nM
12 | C=CC(=O)N1CC2(CC(n3nc(-c4cccc(=O)n4C)c(-c4c(Cl)ccc5[nH]ncc45)c3C)C2)C1 (single isomer, unassigned) [Example 91a] | 5300 nM
13 | C=CC(=O)N1CC2(CC(n3nc(-c4ccc(C(=O)NCCOC)nc4)c(-c4c(Cl)c(C)cc5[nH]ncc45)c3C)C2)C1 (single isomer, unassigned) [Example 64b] | 24500 nM
14 | C=CC(=O)N1CC2(CC(n3nc(-c4ccc(C(=O)N(C)CC(C)(C)O)cc4)c(-c4c(Cl)c(C)cc5[nH]ncc45)c3C)C2)C1 (single isomer, unassigned) [Example 67a] | 202 nM
15 | C=CC(=O)N1CC2(CC(n3nc(-c4ccc5cnccc5c4)c(-c4c(Cl)c(C)cc5[nH]ncc45)c3C)C2)C1 (single isomer, unassigned) [Example 25b] | 7800 nM
16 | C=CC(=O)N1CC2(CC(n3nc(-c4ccc(C#N)nc4)c(-c4c(Cl)c(C)cc5[nH]ncc45)c3C)C2)C1 (single isomer, unassigned) [Example 11b] | > 50000 nM
17 | C=CC(=O)N1CC2(CC(n3nc(-c4ccc5c(c4)N(C)CC(=O)O5)c(-c4c(Cl)c(C)cc5[nH]ncc45)c3C)C2)C1 (single isomer, unassigned) [Example 32b] | > 50000 nM
18 | C=CC(=O)N1CC2(CC(n3nc(-c4ccc5c(c4)CS(=O)(=O)C5)c(-c4c(Cl)c(C)cc5[nH]ncc45)c3C)C2)C1 (single isomer, unassigned) [Example 72a] | 306 nM
19 | C=CC(=O)N1CC2(CC(n3nc(-c4cccnc4)c(-c4c(Cl)c(Cl)cc5[nH]ncc45)c3C(F)F)C2)C1 (single isomer, unassigned) [Example 85b] | 21600 nM
20 | C=CC(=O)N1CC2(CC(n3nc(-c4ccnn4CC4CC4)c(-c4c(Cl)c(C)cc5[nH]ncc45)c3C)C2)C1 (single isomer, unassigned) [Example 45a, 1-(6-(4-(5-chloro-6-methyl-1H-indazol-4-yl)-2′-(cyclopropylmethyl)-5-methyl-1H,2′H-[3,3′-bipyrazol]-1-yl)-2-azaspiro[3.3]heptan-2-yl)prop-2-en-1-one] | 235 nM
21 | C=CC(=O)N1CC2(CC(n3nc(-c4ccc(CN5CCCS5(=O)=O)cc4)c(-c4c(Cl)c(C)cc5[nH]ncc45)c3C)C2)C1 (single isomer, unassigned) [Example 5a] | 43 nM
22 | C=CC(=O)N1CC2(CC(n3nc(-c4cscn4)c(-c4c(Cl)c(C)cc5[nH]ncc45)c3C)C2)C1 (single isomer, unassigned) [Example 51a, 1-(6-(4-(5-chloro-6-methyl-1H-indazol-4-yl)-5-methyl-3-(thiazol-4-yl)-1H-pyrazol-1-yl)-2-azaspiro[3.3]heptan-2-yl)prop-2-en-1-one] | 465 nM
23 | C=CC(=O)N1CC2(CC(n3nc(-c4cnc5c(ccn5C)c4)c(-c4c(Cl)c(C)cc5[nH]ncc45)c3C)C2)C1 (single isomer, unassigned) [Example 8b] | 2900 nM
24 | C=CC(=O)N1CC2(CC(n3nc(-c4ccccc4)c(-c4c(Cl)c(C)cc5[nH]ncc45)c3C)C2)C1 (single isomer, unassigned) [Example 26a, 1-{6-[(4M)-4-(5-Chloro-6-methyl-1H-indazol-4-yl)-5-methyl-3-phenyl-1H-pyrazol-1-yl]-2-azaspiro[3.3]heptan-2-yl}prop-2-en-1-one] | 43 nM
25 | C=CC(=O)N1CC2(CC(n3nc(-c4ccc5nn(CCOCCOC)cc5c4)c(-c4c(Cl)c(C)cc5[nH]ncc45)c3C)C2)C1 (single isomer, unassigned) [Example 43a, 1-{6-[(4M)-4-(5-Chloro-6-methyl-1H-indazol-4-yl)-3-{2-[2-(2-methoxyethoxy)ethyl]-2H-indazol-5-yl}-5-methyl-1H-pyrazol-1-yl]-2-azaspiro[3.3]heptan-2-yl}prop-2-en-1-one] | 10 nM
26 | C=CC(=O)N1CC2(CC(n3nc(-c4ccc(C(=O)O)cc4)c(-c4c(Cl)c(C)cc5[nH]ncc45)c3C)C2)C1 (single isomer, unassigned) [Example 68b] | 1900 nM
27 | C=CC(=O)N1CC2(CC(n3nc(C4=CCC(F)(F)CC4)c(-c4c(Cl)c(C)cc5[nH]ncc45)c3C)C2)C1 (single isomer, unassigned) [Example 3b] | 1200 nM
28 | C=CC(=O)N1CC2(CC(n3nc(-c4cccnc4)c(-c4c(Cl)c(C)cc5[nH]ncc45)c3C)C2)C1 (single isomer, unassigned) [Example 27b] | 19900 nM
29 | C=CC(=O)N1CC2(CC(n3nc(-c4ccc5c(c4)ncn5C)c(-c4c(Cl)c(C)cc5[nH]ncc45)c3C)C2)C1 (single isomer, unassigned) [Example 30b] | > 50000 nM
30 | C=CC(=O)N1CC2(CC(n3nc(-c4cccnc4C)c(-c4c(Cl)ccc5[nH]ncc45)c3C)C2)C1 (single isomer, unassigned) [Example 89b] | 25500 nM
